Each structure is given as a SMILES string. Read-outs that look alike come from different tables or passages of the source.

The assay concerns test plant species. The assay is described as follows: Post-emergent herbicidal activity test (greenhouse, foliar spray, visual growth reduction). The following applies: post-emergence, 336 h, 140 g ai/ha. The class given is in vivo. The method, boiled down: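 Visual scoring 14 d after treatment (0 = no injury, 100 = complete control) against nontreated and solvent-blank plants gave percent growth reduction. Foliar application used a track sprayer delivering 187 L/ha to seedlings at first or second true leaf stage, grown at 23–29 °C day, ~15 h photoperiod.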

The mark [1] stands for this setting: ECHCG: barnyardgrass (Echinochloa crus-galli), 14 days after application, read-out: Visual Growth Reduction (%) 14 Days After Application, ECHCG.
Where [2] appears, read: IPOHE: ivy-leaf morning glory (Ipomoea hederacea), 14 days after application, read-out: Visual Growth Reduction (%) 14 Days After Application, IPOHE.
[3] abbreviates: KCHSC: kochia (Bassia scoparia), 14 days after application, read-out: Visual Growth Reduction (%) 14 Days After Application, KCHSC.
The mark [4] stands for this setting: ORYSA: rice (Oryza sativa), 14 days after application, read-out: Visual Growth Reduction (%) 14 Days After Application, ORYSA.
Where [5] appears, read: SETFA: giant foxtail (Setaria faberi), 14 days after application, read-out: Visual Growth Reduction (%) 14 Days After Application, SETFA.
Setting [6] is: SORVU: grain sorghum (Sorghum vulgare), 14 days after application, read-out: Visual Growth Reduction (%) 14 Days After Application, SORVU.
Setting [7] is: STEME: common chickweed (Stellaria media), 14 days after application, read-out: Visual Growth Reduction (%) 14 Days After Application, STEME.
Where [8] appears, read: TRZAS: wheat, spring (Triticum aestivum), 14 days after application, read-out: Visual Growth Reduction (%) 14 Days After Application, TRZAS.
[9] abbreviates: blackgrass (Alopecurus myosuroides), 14 Days After Application, read-out: Visual Growth Reduction (%) ALOMY.
Where [10] appears, read: canada thistle (Cirsium arvense), 14 Days After Application, read-out: Visual Growth Reduction (%) CIRAR.
The mark [11] stands for this setting: crabgrass (Digitaria sanguinalis), 14 Days After Application, read-out: Visual Growth Reduction (%) DIGSA.
The mark [12] stands for this setting: lambsquarters (Chenopodium album), 14 Days After Application, read-out: Visual Growth Reduction (%) CHEAL.
[13] abbreviates: redroot pigweed (Amaranthus retroflexus), 14 Days After Application, read-out: Visual Growth Reduction (%) AMARE.
The mark [14] stands for this setting: wild oat (Avena fatua), 14 Days After Application, read-out: Visual Growth Reduction (%) AVEFA.
The mark [15] stands for this setting: yellow nutsedge (Cyperus esculentus), 14 Days After Application, read-out: Visual Growth Reduction (%) CYPES.

Turning to `C=Cc1cc(-c2nc(C(=O)OC)c(Cl)cc2F)c(Cl)cc1C(F)(F)F` [F303, Methyl 3-chloro-6-(2-chloro-4-(trifluoromethyl)-5-vinylphenyl)-5-fluoropicolinate], the pest or weed control at 140 g/ha under setting [1] lay within 0 to 29%; the pest or weed control at 140 g/ha under setting [2] was 95 to 100%; the pest or weed control at 140 g/ha under setting [3] lay within 0 to 29%; the pest or weed control at 140 g/ha under setting [4] was 0 to 29%; the pest or weed control at 140 g/ha under setting [5] lay in the range of 0 to 29%; the pest or weed control at 140 g/ha under setting [6] lay within 0 to 29%. Further, the pest or weed control at 140 g/ha runs as follows: under setting [7], 0 to 29%; under setting [8], 0 to 29%; under setting [9], 0 to 29%; under setting [10], 0 to 29%; under setting [11], 0 to 29%; under setting [12], 75 to 84%. Also, the pest or weed control at 140 g/ha was in the range of 0 to 29% under setting [13], 0 to 29% under setting [14] and 0 to 29% under setting [15].
With `COC(=O)c1nc(-c2ccc(C(F)(F)F)c(Cl)c2)ccc1Cl` [F304, Methyl 3-chloro-6-(3-chloro-4-(trifluoromethyl)phenyl)picolinate], the pest or weed control at 140 g/ha by setting is: under setting [1], 0 to 29%; under setting [2], 95 to 100%; under setting [3], 0 to 29%; under setting [4], 0 to 29%; under setting [5], 0 to 29%; under setting [6], 0 to 29%. The pest or weed control at 140 g/ha lay in the range of 0 to 29% under setting [7]; 0 to 29% under setting [8]; 0 to 29% under setting [9]; 0 to 29% under setting [10]; 30 to 44% under setting [11]; 0 to 29% under setting [12]. The pest or weed control at 140 g/ha was 0 to 29% under setting [13], 0 to 29% under setting [14] and 0 to 29% under setting [15].
Take `COC(=O)c1nc(-c2ccc(C(F)(F)F)c(Cl)c2)c(F)cc1Cl` [F305, Methyl 3-chloro-6-(3-chloro-4-(trifluoromethyl)phenyl)-5-fluoropicolinate]: the pest or weed control at 140 g/ha reads like this: under setting [1], 0 to 29%; under setting [2], 95 to 100%; under setting [3], 0 to 29%; under setting [4], 0 to 29%; under setting [5], 0 to 29%; under setting [6], 75 to 84%. The pest or weed control at 140 g/ha was 0 to 29% under setting [7]; 0 to 29% under setting [8]; 0 to 29% under setting [9]; 0 to 29% under setting [10]; 85 to 94% under setting [11]; 45 to 59% under setting [12]. Besides, the pest or weed control at 140 g/ha reads like this: under setting [13], 30 to 44%; under setting [14], 0 to 29%; under setting [15], 45 to 59%.
On to `COC(=O)c1nc(-c2ccc(C(F)(F)F)c(F)c2)ccc1Cl` [F306, Methyl 3-chloro-6-(3-fluoro-4-(trifluoromethyl)phenyl)picolinate], for which the pest or weed control at 140 g/ha lay within 0 to 29% under setting [1]; 95 to 100% under setting [2]; 0 to 29% under setting [3]; 0 to 29% under setting [4]; 0 to 29% under setting [5]; 60 to 74% under setting [6]. Moreover, the pest or weed control at 140 g/ha runs as follows: under setting [7], 0 to 29%; under setting [8], 0 to 29%; under setting [9], 0 to 29%; under setting [10], 0 to 29%; under setting [11], 75 to 84%; under setting [12], 0 to 29%. Besides, the pest or weed control at 140 g/ha reads like this: under setting [13], 30 to 44%; under setting [14], 0 to 29%; under setting [15], 45 to 59%.
As for `COC(=O)c1nc(-c2ccc(C(F)(F)F)c(F)c2)c(F)cc1Cl` [F307, Methyl 3-chloro-5-fluoro-6-(3-fluoro-4-(trifluoromethyl)phenyl) picolinate], the pest or weed control at 140 g/ha lay in the range of 0 to 29% under setting [1]; 95 to 100% under setting [2]; 0 to 29% under setting [3]; 0 to 29% under setting [4]; 0 to 29% under setting [5]; 85 to 94% under setting [6]. For the same compound, the pest or weed control at 140 g/ha is 0 to 29% under setting [7]; 0 to 29% under setting [8]; 0 to 29% under setting [9]; 0 to 29% under setting [10]; 85 to 94% under setting [11]; 75 to 84% under setting [12]. Moreover, the pest or weed control at 140 g/ha runs as follows: under setting [13], 75 to 84%; under setting [14], 0 to 29%; under setting [15], 0 to 29%.
With `COC(=O)c1nc(-c2ccc(C(F)(F)F)c(C)c2)ccc1Cl` [F308, Methyl 3-chloro-6-(3-methyl-4-(trifluoromethyl)phenyl)picolinate], the pest or weed control at 140 g/ha fell in the range of 0 to 29% under setting [1]; 0 to 29% under setting [2]; 0 to 29% under setting [3]; 0 to 29% under setting [4]; 0 to 29% under setting [5]; 0 to 29% under setting [6]. Besides, the pest or weed control at 140 g/ha under setting [7] lay within 0 to 29%; the pest or weed control at 140 g/ha under setting [8] lay in the range of 0 to 29%; the pest or weed control at 140 g/ha under setting [9] fell in the range of 0 to 29%; the pest or weed control at 140 g/ha under setting [10] fell in the range of 0 to 29%; the pest or weed control at 140 g/ha under setting [11] was in the range of 0 to 29%; the pest or weed control at 140 g/ha under setting [12] lay in the range of 0 to 29%. Besides, the pest or weed control at 140 g/ha by setting is: under setting [13], 45 to 59%; under setting [14], 0 to 29%; under setting [15], 0 to 29%.
For `COC(=O)c1nc(-c2ccc(C(F)(F)F)c(C)c2)c(F)cc1Cl` [F309, Methyl 3-chloro-5-fluoro-6-(3-methyl-4-(trifluoromethyl)phenyl)picolinate], the pest or weed control at 140 g/ha runs as follows: under setting [1], 0 to 29%; under setting [2], 0 to 29%; under setting [3], 0 to 29%; under setting [4], 0 to 29%; under setting [5], 0 to 29%; under setting [6], 0 to 29%. Moreover, the pest or weed control at 140 g/ha reads like this: under setting [7], 0 to 29%; under setting [8], 0 to 29%; under setting [9], 0 to 29%; under setting [10], 0 to 29%; under setting [11], 0 to 29%; under setting [12], 45 to 59%. Also, the pest or weed control at 140 g/ha is 45 to 59% under setting [13], 0 to 29% under setting [14] and 0 to 29% under setting [15].
For the compound `COC(=O)c1nc(-c2ccc(C(F)(F)F)c(F)c2F)c(F)cc1Cl` [F310, Methyl 3-chloro-6-(2,3-difluoro-4-(trifluoromethyl)phenyl)-5-fluoropicolinate], the pest or weed control at 140 g/ha is 60 to 74% under setting [1]; 95 to 100% under setting [2]; 45 to 59% under setting [3]; 0 to 29% under setting [4]; 85 to 94% under setting [5]; 95 to 100% under setting [6]. For the same compound, the pest or weed control at 140 g/ha by setting is: under setting [7], 0 to 29%; under setting [8], 60 to 74%; under setting [9], 45 to 59%; under setting [10], 95 to 100%; under setting [11], 95 to 100%; under setting [12], 95 to 100%. For the same compound, the pest or weed control at 140 g/ha reads like this: under setting [13], 95 to 100%; under setting [14], 60 to 74%; under setting [15], 75 to 84%.
